# Test results as given in US20140005165A1, “SUBSTITUTED 3-AZABICYCLO[3.1.0]HEXANE DERIVATIVES USEFUL AS CCR2 ANTAGONISTS” (priority 2011, published 2014).
# pIC50: −log10 of the molar value.
# Target: T1, human CCR2 (Homo sapiens, UniProt P41597)
# T1 construct: expressed in transfected cells; host or cells: Ba/F3 cells (membrane preparation)
# Assay: CCR2 Membrane Binding Assay (SPA radio-ligand binding, 125I-rhMCP-1)
# Details: membranes from Ba/F3 cells transfected with human CCR2, 0.03 nM 125I-rhMCP-1
# Description: The radio-ligand binding assay was done using scintillation proximity assay (SPA) technology. Briefly, membranes (1 μg per assay point) from Ba/F3 cells transfected with human CCR2, and wheat germ agglutinin-coated SPA beads (80 μg per point; Amersham, Arlington Heights, Ill.), were pre-incubated for 30 min at room temperature in CCR2 buffer (50 mM HEPES (pH=7.4), 10 mM MgCl2, 10 mM NaCl, 1 mM CaCL2, 0.1% BSA, 10 μg/ml Saponin). At this point pre-bound SPA bead, membrane complex was incubated at room temperature for 4 h with varying concentrations of punitive CCR2 antagonists (in 1% DMSO, final) and 0.03 nM ^125I-rhMCP-1 in CCR2Buffer (S.A. 2200 Ci/mmol, PerkinElmer Life and Analytical Science, Boston, Mass.; NEX332). Binding competition was measured using a 1450 Microbeta Trilux counter (Wallac, Gaithersburg, Md.). Binding constants (IC50 and slope) were calculated using GraphPad Prism software (GraphPad Software, Inc., La Jolla Calif.).
# T1 sequence (P41597 whole entry): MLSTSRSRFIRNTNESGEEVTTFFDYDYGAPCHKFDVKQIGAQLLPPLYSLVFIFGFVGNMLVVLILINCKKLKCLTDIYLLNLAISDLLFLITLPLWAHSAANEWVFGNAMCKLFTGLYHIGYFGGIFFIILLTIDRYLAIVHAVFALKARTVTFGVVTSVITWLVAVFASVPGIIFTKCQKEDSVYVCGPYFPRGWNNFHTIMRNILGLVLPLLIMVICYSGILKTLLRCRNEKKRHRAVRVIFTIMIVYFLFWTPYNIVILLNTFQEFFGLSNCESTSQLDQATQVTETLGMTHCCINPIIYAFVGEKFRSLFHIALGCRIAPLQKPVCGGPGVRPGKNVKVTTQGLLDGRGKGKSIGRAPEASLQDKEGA
SMILES,pIC50 (class symbols),other results
O=C(CNC(=O)[C@H]1[C@@H]2CN([C@H]3CC[C@@H](C4Cc5ccccc5O4)CC3)C[C@@H]21)Nc1cccc(C(F)(F)F)c1 (some centres unmarked) [Compound 140],6.15 to 6.70,–
O=C(CNC(=O)[C@H]1[C@@H]2CN([C@H]3CC[C@@H](c4cc(Br)c(O)c(Br)c4)CC3)C[C@@H]21)Nc1cccc(C(F)(F)F)c1 [Compound 163],> 7.30,–
O=C([C@H]1[C@@H]2CN([C@H]3CC[C@@H](c4ccccc4)CC3)C[C@@H]21)N1CCC(Nc2ncc(C(F)(F)F)cn2)C1 (some centres unmarked) [Compound 113],6.15 to 6.70,–
O=C(NC1Cc2ccccc2C1)[C@H]1[C@@H]2CN([C@H]3CC[C@@H](c4ccccc4)CC3)C[C@@H]21 [Compound 16],–,IC50 (nM) (class symbols): D (compounds with IC50 values between 701 nM and 110 nM are designated as D class compounds)
COCC(C)N1C[C@@H]2[C@H](C1)[C@H]2C(=O)NCC(=O)Nc1cccc(C(F)(F)F)c1 (some centres unmarked) [Compound 15],6.15 to 6.70,–
O=C(CNC(=O)[C@H]1[C@@H]2CN(C3CCCCCC3)C[C@@H]21)Nc1cccc(C(F)(F)F)c1 [Compound 33],6.15 to 6.70,–
O=C(NCCCc1cccc(C(F)(F)F)c1)[C@H]1[C@@H]2CN([C@H]3CC[C@@H](c4ccccc4)CC3)C[C@@H]21 [Compound 62],6.70 to 7.29,–
O=C(CNC(=O)[C@H]1[C@@H]2CN([C@H]3CC[C@@H](c4ccc(-c5ccccc5)cc4)CC3)C[C@@H]21)Nc1cccc(C(F)(F)F)c1 [Compound 156],–,pIC50 (4 h room temperature): 8.13
O=C([C@H]1[C@@H]2CN([C@H]3CC[C@@H](c4ccccc4)CC3)C[C@@H]21)N1CC(Oc2ccc(C(F)(F)F)cc2)C1 [Compound 76],–,IC50 (nM) (class symbols): D (compounds with IC50 values between 701 nM and 110 nM are designated as D class compounds)
O=C(CNC(=O)[C@H]1[C@@H]2CN(C3CCC3)C[C@@H]21)Nc1cccc(C(F)(F)F)c1 [Compound 110],6.15 to 6.70,–
O=C(CNC(=O)[C@H]1[C@@H]2CN([C@H]3CC[C@@H](c4ccc(=O)[nH]c4)CC3)C[C@@H]21)Nc1cccc(C(F)(F)F)c1 [Compound 117],> 7.30,–
O=C(CNC(=O)[C@H]1[C@@H]2CN([C@H]3CC[C@@H](c4cnn(Cc5ccccc5)c4)CC3)C[C@@H]21)Nc1cccc(C(F)(F)F)c1 [Compound 157],> 7.30,–
CC(C1CC1)N1C[C@@H]2[C@H](C1)[C@H]2C(=O)NCC(=O)Nc1cccc(C(F)(F)F)c1 (some centres unmarked) [Compound 12],6.15 to 6.70,–
O=C1CCC(N2C[C@@H]3[C@H](C2)[C@H]3C(=O)NCC(=O)Nc2cccc(C(F)(F)F)c2)CC1 [Compound 29],–,IC50 (nM) (class symbols): D (compounds with IC50 values between 701 nM and 110 nM are designated as D class compounds)
O=C(CNC(=O)[C@H]1[C@@H]2CN([C@H]3CC[C@H](c4ccccc4)CC3)C[C@@H]21)Nc1cccc(C(F)(F)F)c1 [Compound 79],–,IC50 (nM) (class symbols): D (compounds with IC50 values between 701 nM and 110 nM are designated as D class compounds)
Cn1ncc2cc([C@H]3CC[C@H](N4C[C@@H]5[C@H](C4)[C@H]5C(=O)NCC(=O)Nc4cccc(C(F)(F)F)c4)CC3)ccc21 [Compound 151],6.70 to 7.29,–
O=C(CNC(=O)C1C2CN(C3CCOCC3)CC21)Nc1cccc(C(F)(F)F)c1 (centres unmarked) [Compound 21],6.70 to 7.29,–
O=C(CNC(=O)[C@H]1[C@@H]2CN(C3CCCCC3)C[C@@H]21)Nc1cccc(C(F)(F)F)c1 [Compound 2],6.70 to 7.29,–
CC(C)(C)OC(=O)[C@H]1CC[C@@H](N2C[C@@H]3[C@H](C2)[C@H]3C(=O)NCC(=O)Nc2cccc(C(F)(F)F)c2)CC1 [Compound 124],6.15 to 6.70,–
Cn1cc([C@H]2CC[C@H](N3C[C@@H]4[C@H](C3)[C@H]4C(=O)NCC(=O)Nc3cccc(C(F)(F)F)c3)CC2)cn1 [Compound 96],–,IC50 (nM) (class symbols): D (compounds with IC50 values between 701 nM and 110 nM are designated as D class compounds)
O=C(CNC(=O)[C@H]1[C@@H]2CN(C3CCSCC3)C[C@@H]21)Nc1cccc(C(F)(F)F)c1 [Compound 35],–,IC50 (nM) (class symbols): D (compounds with IC50 values between 701 nM and 110 nM are designated as D class compounds)
O=C(CNC(=O)[C@H]1[C@@H]2CN([C@H]3CC[C@@H](c4ncccn4)CC3)C[C@@H]21)Nc1cccc(C(F)(F)F)c1 [Compound 90],–,pIC50 (4 h room temperature): 8.12
O=C(NCCc1cccc(C(F)(F)F)c1)C1[C@H]2CN(C3CCCOC3)C[C@@H]12 (some centres unmarked) [Compound 162],6.15 to 6.70,–
O=C(CNC(=O)[C@H]1[C@@H]2CN(C3CCC(O)(c4nccs4)CC3)C[C@@H]21)Nc1cccc(C(F)(F)F)c1 (some centres unmarked) [Compound 122],6.70 to 7.29,–
O=C(NC1CCc2ccc(F)cc2C1)[C@H]1[C@@H]2CN([C@H]3CC[C@@H](c4ccccc4)CC3)C[C@@H]21 (some centres unmarked) [Compound 36],6.15 to 6.70,–

SMILES,pIC50 (class symbols),other results
CC(C)(C)OC(=O)N[C@H]1CC[C@@H](N2C[C@@H]3[C@H](C2)[C@H]3C(=O)NCC(=O)Nc2cccc(C(F)(F)F)c2)CC1 [Compound 136],6.70 to 7.29,–
FC(F)(F)c1cccc(CN(Cc2cccc(C(F)(F)F)c2)c2nnc([C@H]3[C@@H]4CN([C@H]5CC[C@@H](c6ccccc6)CC5)C[C@@H]43)o2)c1 [Compound 8],6.15 to 6.70,–
O=C(NCCc1ccccc1)[C@H]1[C@@H]2CN([C@H]3CC[C@@H](c4ccccc4)CC3)C[C@@H]21 [Compound 10],–,IC50 (nM) (class symbols): D (compounds with IC50 values between 701 nM and 110 nM are designated as D class compounds)
O=C(CNC(=O)[C@H]1[C@@H]2CN(C3CCC(O)(c4ccc5c(c4)OCO5)CC3)C[C@@H]21)Nc1cccc(C(F)(F)F)c1 (some centres unmarked) [Compound 152],–,pIC50 (4 h room temperature): 8.00
O=C(CNC(=O)[C@H]1[C@@H]2CN([C@H]3CC[C@@H](c4ccc(O)cc4)CC3)C[C@@H]21)Nc1cccc(C(F)(F)F)c1 [Compound 114],–,pIC50 (4 h room temperature): 8.51
COc1ccc(CC2CCCC(N3C[C@@H]4[C@H](C3)[C@H]4C(=O)NCC(=O)Nc3cccc(C(F)(F)F)c3)C2)cc1 (some centres unmarked) [Compound 144],6.70 to 7.29,–
O=C([C@H]1[C@@H]2CN([C@H]3CC[C@@H](c4ccccc4)CC3)C[C@@H]21)N1CCN(c2cccc(C(F)(F)F)c2)CC1 [Compound 108],6.15 to 6.70,–
O=C(CNC(=O)[C@H]1[C@@H]2CN([C@H]3CC[C@@H](NC(=O)c4ccccc4)CC3)C[C@@H]21)Nc1cccc(C(F)(F)F)c1 [Compound 141],> 7.30,–
CC=C1CCC(N2C[C@@H]3[C@H](C2)[C@H]3C(=O)NCC(=O)Nc2cccc(C(F)(F)F)c2)CC1 (some centres unmarked) [Compound 37],–,IC50 (nM) (class symbols): D (compounds with IC50 values between 701 nM and 110 nM are designated as D class compounds)
O=C(CNC(=O)[C@H]1[C@@H]2CN([C@H]3CC[C@@H](c4ccc5c(c4)OCO5)CC3)C[C@@H]21)Nc1cccc(C(F)(F)F)c1 [Compound 143],–,pIC50 (4 h room temperature): 8.39
O=C(CNC(=O)[C@H]1[C@@H]2CN([C@H]3CC[C@H](c4ccccn4)CC3)C[C@@H]21)Nc1cccc(C(F)(F)F)c1 [Compound 84],6.15 to 6.70,–
COC(=O)[C@H]1CC[C@H](N2C[C@@H]3[C@H](C2)[C@H]3C(=O)NCC(=O)Nc2cccc(C(F)(F)F)c2)CC1 [Compound 58],6.15 to 6.70,–
O=C(CNC(=O)[C@H]1[C@@H]2CN(C3CCC(O)CC3)C[C@@H]21)Nc1cccc(C(F)(F)F)c1 (some centres unmarked) [Compound 34],6.15 to 6.70,–
O=C([C@H]1[C@@H]2CN([C@H]3CC[C@@H](c4ccccc4)CC3)C[C@@H]21)N1CCC(c2cccc(C(F)(F)F)c2)C1 (some centres unmarked) [Compound 71],> 7.30,–
CC1CCCC(N2C[C@@H]3[C@H](C2)[C@H]3C(=O)NCC(=O)Nc2cccc(C(F)(F)F)c2)C1 (some centres unmarked) [Compound 32],6.15 to 6.70,–
O=C(CNC(=O)[C@H]1[C@@H]2CN(C3CCCOC3)C[C@@H]21)Nc1cccc(C(F)(F)F)c1 (some centres unmarked) [Compound 22],6.70 to 7.29,–
CC(C)N1C[C@@H]2[C@H](C1)[C@H]2C(=O)NCC(=O)Nc1cccc(C(F)(F)F)c1 [Compound 93],6.70 to 7.29,–
O=C(CNC(=O)[C@H]1[C@@H]2CN([C@H]3CC[C@@H](c4ccc(F)cc4)CC3)C[C@@H]21)Nc1cccc(C(F)(F)F)c1 [Compound 119],–,pIC50 (4 h room temperature): 8.21
O=C(CNC(=O)[C@H]1[C@@H]2CN(C3CCCC(c4ccccc4)C3)C[C@@H]21)Nc1cccc(C(F)(F)F)c1 (some centres unmarked) [Compound 80],–,IC50 (nM) (class symbols): D (compounds with IC50 values between 701 nM and 110 nM are designated as D class compounds)
Cn1ccnc1C1CCC(N2C[C@@H]3[C@H](C2)[C@H]3C(=O)NCC(=O)Nc2cccc(C(F)(F)F)c2)CC1 (some centres unmarked) [Compound 95],6.70 to 7.29,–
O=C(NCCc1cccc(C(F)(F)F)c1)[C@H]1[C@@H]2CN([C@H]3CC[C@@H](c4ccccc4)CC3)C[C@@H]21 [Compound 48],> 7.30,–
COc1ccc([C@H]2CC[C@@H](N3C[C@@H]4[C@H](C3)[C@H]4C(=O)NCC(=O)Nc3cccc(C(F)(F)F)c3)CC2)cc1 [Compound 130],–,pIC50 (4 h room temperature): 8.40
Cn1ncc2cc([C@H]3CC[C@@H](N4C[C@@H]5[C@H](C4)[C@H]5C(=O)NCC(=O)Nc4cccc(C(F)(F)F)c4)CC3)ccc21 [Compound 150],–,pIC50 (4 h room temperature): 8.17
CC(C)N1C[C@@H]2C(C(=O)NCCc3cccc(C(F)(F)F)c3)[C@@H]2C1 (some centres unmarked) [Compound 18],6.15 to 6.70,–
O=C(CNC(=O)[C@H]1[C@@H]2CN([C@H]3CC[C@H](c4ccsc4)CC3)C[C@@H]21)Nc1cccc(C(F)(F)F)c1 [Compound 99],6.70 to 7.29,–
